Measurements: patent US20140329682A1, “METHOD OF CONTROLLING WEED IN A SUGAR CANE FIELD” (SUMITOMO CHEMICAL COMPANY, LIMITED, priority 2011, published 2014)

What was measured:
Assay type in all cases: in vivo
sugar cane [1] = assay: Phytotoxicity on sugar cane, spray from upper side of pot, sugar cane at 4 to 5 leaves (Example 3); conditions: 70 g (active ingredient)/ha, one week after treatment, scale 0 to 100
Protocol: (§1) A sugar cane, a foliage of which had grown to about 4 to 5 leaves, was selected, and the length of the stem cutting was adjusted to be 8 cm or 25 cm. The 8 cm stem cutting had one node, and the 25 cm stem cutting had two nodes. A soil was packed into a 32 cm×25 cm×11 cm plastic pot, and seeds of Amaranthus retroflexus were seeded thereon. […] On the date when the stem cutting was planted, and after planting of the stem cutting, a water-diluted liquid of saflufenacil (140 ppm) was uniformly sprayed with a sprayer from an upper side of the pot at an amount described in Table 3. The water-diluted liquid of saflufenacil was prepared by dissolving a predetermined amount of saflufenacil in acetone containing 2% (w/v) Tween 20, and diluting this solution with water so that the acetone concentration became 10% by volume. Thereafter, the pot for a test was placed in a greenhouse. One week after treatment with saflufenacil, phytotoxicity on sugar cane was determined and, four weeks after treatment with saflufenacil, the herbicidal activity against Amaranthus retroflexus was determined.

Amaranthus retroflexus [2] = assay: Herbicidal activity, spray from upper side of pot, sugar cane at 4 to 5 leaves (Example 3); conditions: 70 g (active ingredient)/ha, four weeks after treatment, scale 0 to 100
Protocol: as §1

Amaranthus retroflexus [3] = assay: Herbicidal activity, spray from upper side of pot, sugar cane at 4 to 5 leaves (Example 2); conditions: 125 g (active ingredient)/ha, four weeks after treatment, scale 0 to 100
Protocol: A sugar cane, a foliage of which had grown to about 4 to 5 leaves, was selected, and the length of the stem cutting was adjusted to be 8 cm, 15 cm or 25 cm. The 8 cm or 15 cm stem cutting had one node, and the 25 cm stem cutting had two nodes. A soil was packed into a 32 cm×25 cm×11 cm plastic pot, and seeds of Amaranthus retroflexus were seeded thereon. […] On the date when the stem cutting was planted, and after planting of the stem cutting, a water-diluted liquid of a flumioxazin water dispersible granule (water dispersible granule containing 51% flumioxazin, trade name: Valor SX, manufactured by Valent USA Corporation) (250 ppm) was uniformly sprayed with a sprayer from an upper side of the pot at an amount described in Table 2. Thereafter, the pot for a test was placed in a greenhouse. One week after treatment with flumioxazin, phytotoxicity on sugar cane was determined and, four weeks after treatment with flumioxazin, the herbicidal activity against Amaranthus retroflexus was determined.

sugar cane [4] = assay: Phytotoxicity on sugar cane, soil surface spray on day of planting (Example 1); conditions: four weeks after treatment, scale 0 to 100
Protocol: The stem cutting from which a bud had grown to about 1 cm was selected, and the length of the stem cutting was adjusted to be 3 cm, 15 cm or 25 cm. The stem cutting of 3 cm or 15 cm had only one node, and the stem cutting of 25 cm had two nodes. A soil was packed into a 32 cm×25 cm×11 cm plastic pot, and seeds of Amaranthus retroflexus were seeded thereon. […] On the date when the stem cutting was planted, and after planting of the stem cutting, a water-diluted liquid of a flumioxazin water dispersible granule (water dispersible granule containing 51% floumioxazin, trade name: Valor SX, manufactured by Valent USA Corporation) (100 ppm or 250 ppm) was uniformly sprayed on the soil surface with a sprayer at an amount described in Table 1. Thereafter, the pot for a test was placed in a greenhouse. Four weeks after treatment with flumioxazin, phytotoxicity on sugar cane and the herbicidal activity against Amaranthus retroflexus were determined.

| Structure (SMILES) | Phytotoxicity on sugar cane (sugar cane [1]; stem cutting 8 cm (one node)) | Phytotoxicity on sugar cane (sugar cane [1]; stem cutting 25 cm (two nodes)) | Herbicidal activity (Amaranthus retroflexus [2]; stem cutting 8 cm) | Herbicidal activity (Amaranthus retroflexus [2]; stem cutting 25 cm) | Herbicidal activity (Amaranthus retroflexus [3]; stem cutting 8 cm) | Herbicidal activity (Amaranthus retroflexus [3]; stem cutting 15 cm) | Herbicidal activity (Amaranthus retroflexus [3]; stem cutting 25 cm) | Phytotoxicity on sugar cane (sugar cane [4]; 50 g (active ingredient)/ha, stem cutting 3 cm (one node)) | Phytotoxicity on sugar cane (sugar cane [4]; 50 g (active ingredient)/ha, stem cutting 15 cm (one node)) | Phytotoxicity on sugar cane (sugar cane [4]; 50 g (active ingredient)/ha, stem cutting 25 cm (two nodes)) | Phytotoxicity on sugar cane (sugar cane [4]; 125 g (active ingredient)/ha, stem cutting 3 cm (one node)) | Phytotoxicity on sugar cane (sugar cane [4]; 125 g (active ingredient)/ha, stem cutting 15 cm (one node)) | Phytotoxicity on sugar cane (sugar cane [4]; 125 g (active ingredient)/ha, stem cutting 25 cm (two nodes)) |
| --- | --- | --- | --- | --- | --- | --- | --- | --- | --- | --- | --- | --- | --- |
| CC(C)N(C)S(=O)(=O)NC(=O)c1cc(-n2c(=O)cc(C(F)(F)F)n(C)c2=O)c(F)cc1Cl [Saflufenacil, saflufenacil] | 0 | 15 | 100 | 100 | – | – | – | – | – | – | – | – | – |
| C#CCN1C(=O)COc2cc(F)c(N3C(=O)C4=C(CCCC4)C3=O)cc21 [Flumioxazin, flumioxazin] | – | – | – | – | 100 | 100 | 100 | 0 | 5 | 20 | 0 | 5 | 20 |
